Laboratory results from PMC9134403 (ACS Omega, 2022).

Target: mushroom tyrosinase (Agaricus bisporus, UniProt C7FF04)
Assay: Kinetic analysis
Assay type: biochemical

Sequence of mushroom tyrosinase (C7FF04 1-392): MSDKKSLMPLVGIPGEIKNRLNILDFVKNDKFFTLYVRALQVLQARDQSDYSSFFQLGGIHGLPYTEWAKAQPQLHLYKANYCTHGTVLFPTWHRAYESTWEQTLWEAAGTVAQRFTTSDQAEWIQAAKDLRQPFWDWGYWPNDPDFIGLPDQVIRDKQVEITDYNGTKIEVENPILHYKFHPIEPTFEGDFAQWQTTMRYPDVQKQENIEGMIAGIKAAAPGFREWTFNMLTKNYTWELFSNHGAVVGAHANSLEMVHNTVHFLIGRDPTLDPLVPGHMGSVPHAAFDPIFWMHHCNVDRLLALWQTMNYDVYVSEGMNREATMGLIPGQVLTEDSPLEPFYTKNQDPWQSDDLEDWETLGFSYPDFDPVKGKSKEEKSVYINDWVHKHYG

For `O=[N+]([O-])c1cccc(-c2oc3cc(Br)cc(Br)c3c(=S)c2O)c1` [2n, 5,7-Dibromo-3-hydroxy-2-(3-nitrophenyl)-4H-chromene-4-thione], the Ki was 1980 nM and the mode of inhibition (Lineweaver–Burk plot, Km increased, Vmax constant) was “competitive”.
